Reference: publication PMC5853558, “De novo identification of lipid II binding lipopeptides with antibacterial activity against vancomycin-resistant bacteria” (Chemical Science, 2017)
Values after ≈ are worked out from the molar mass of the structure shown. *1 amine or outer side, *2 acyl side, *3 side chain or, on linkers, in order; H or OH if unused. Where a SMILES comes first, the peptide text is derived from it. Bridges are numbered along the chain shown (N, C = ends). [ ]: non-standard residue; d: D form. The star is where a group is joined. TBMB = c1c(C[*:1])cc(C[*:3])cc1C[*:2]; NHDecyl = CCCCCCCCCCN*

How the values were obtained:
M. luteus (NCTC2665) = experiment: microbe, parasite or virus in culture; type: cell-based, Micrococcus luteus
Method in brief: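 Growth inhibition was scored by broth microdilution in TSB against peptide serial dilutions (maximum 512 µg/ml; lipidated analogues maximum 64 µg/ml; 2% DMSO). Bacteria reaching OD600 0.5 were added from a 1 x 10^6 CFU/ml suspension, then plates were incubated shaking at 250 rpm.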

[1] = test system: C15-P (farnesyl-phosphate); experiment: Antagonization assay with C15-P (negative control); type: cell-based; parameters: key: +: antagonization of antibiotic activity; -: no antagonization of antibiotic activity; conditions: Supplemental table S10, peptide at 4x MIC, 4 molar equivalents, M. luteus, 16 h at 30°C, growth observed visually
Method: (§1) Section 4 Biological and biochemical experiments
(§2) 4.1 Minimum inhibitory concentration assay
(§3) MIC values were determined by using the broth microdilution method. Peptides were dissolved first in DMSO and diluted with broth so that the final peptide concentration was 1024 µg/ml and the DMSO concentration was 4%. Peptide serial dilutions were made in TSB in a polypropylene 96-wells plate using 50 µl volumes. An overnight culture of the organism of interest was diluted to and OD600 of 0.01 and grown until they reach 0.5. The culture was then diluted to 1 x 10^6 CFU/ml and 50 µl of this suspension was added to each well. The highest concentrations were then 512 µg/ml peptide and 2% DMSO. The plates were incubated at the preferred growth temperature of the organism that was used and 250 rpm. […] When […]
(§4) determining the MICs of the lipidated peptides, the lipopeptides were first dissolved in DMSO and diluted with TSB so that the peptide concentration was 128 µg/ml and the DMSO concentration was 4%. After inoculation the highest peptide concentration evaluated was 64 µg/ml and the DMSO concentration was 2%. A DMSO control was tested for each strain to ensure the DMSO did not affect the growth of the particular strain. […]
(§5) 4.4 Antagonization assays
(§6) Stock solutions of each peptide antibiotic were prepared so that their final concentration in the assay would be 4x MIC. Peptides were transferred to a 96 wells plate and lipid II or C15-P (farnesyl-phosphate) was added at 4 molar equivalents in a final volume of 50 µl. Each well received 50 µl of bacterial suspension (M. luteus) at 1 x 10^6 CFU/ml and the plates were incubated for 16 h at 250 rpm and 30°C. Growth was observed visually (see supplemental table S10 for results).
Supplemental table S10. Lipid II antagonization assay results
Result with indicated antagonista
Antibiotic compound Lipid II C55-PP C15-Pb […]
a + = antagonization of antibiotic activity; - = no antagonization of antibiotic activity; b C -P was used as a negative […]
control (C15-P is a watersoluble analogue of the lipid II precursor undecaprenol phosphate).
4.6 Scanning Electron Microscopy
E. faecium E155 was inoculated at an OD600nm of 0.05 into 300 µL of cation adjusted TSB containing P8-D-(S6R, R15A)-C10 or nisin at (both a 2x MIC) along with 1% glucose and 1%
DMSO. An untreated culture was used as control. Following overnight incubation (ca. 16 hr) bacterial cells were fixed for 15 minutes with 1% (v/v) glutaraldehyde in phosphate buffered saline (PBS) at room temperature on poly-L-lysine covered glass slides (12 mm diameter). […]

C55-PP = experiment: Antagonization assay with C55-PP; type: cell-based, M. luteus; parameters: key to Result with antagonist C55-PP: +: antagonization of antibiotic activity; -: no antagonization of antibiotic activity; conditions: for Result with antagonist C55-PP: Supplemental table S10, peptide at 4x MIC, M. luteus, 16 h at 30°C, growth observed visually; for Effect of adding C55-PP on antibiotic activity: antagonization experiment using C55-PP
Method: (§7) To assess the role of lipid II in the mode of action of the lipopeptides a lipid II antagonization assay was employed.[18],[33] This assay was performed by premixing P8-D-C10 or the optimized P8-D-(S6R, R15A)-C10 with an excess of lipid II prior to addition of a live culture of M. luteus. […] To probe the stereochemical aspects of lipid II recognition by the optimized P8-D-(S6R, R15A)-C10 lipopeptide we also prepared and tested the corresponding enantiomeric L-peptide species P8-L-(S6R, R15A)-C10. […] Given that lipid II is a chiral biomolecule we had expected the enantiomeric lipopeptides to have different activities based on the assumption that they would interact differently with lipid II. To further investigate this phenomenon we employed the same lipid II antagonization assay described above. […] To explain this observation we hypothesize that the two enantiomeric peptides interact primarily with the pyrophosphate moiety of lipid II and are therefore less influenced by the chiral elements present elsewhere in the lipid II molecule. The pyrophosphate group is known to be a binding site for many natural occurring lipid II binding peptides.[15],[16] […] To test the hypothesis that both the P8-D-(S6R, R15A)-C10 and P8-L-(S6R, R15A)-C10 lipopeptides interact with the pyrophosphate moiety we performed an additional antagonizaiton experiment using C55-PP.
as §1, §2, §3, §4, §5, §6

lipid II = experiment: Lipid II antagonization assay; type: cell-based, M. luteus; parameters: key to Result with antagonist Lipid II: +: antagonization of antibiotic activity; -: no antagonization of antibiotic activity; conditions: for Result with antagonist Lipid II: Supplemental table S10, peptide at 4x MIC, antagonist at 4 molar equivalents, M. luteus 1 x 10^6 CFU/ml, 16 h at 30°C, growth observed visually; for Effect of pre-incubation with lipid II on antibacterial activity: premixed with an excess of lipid II before addition of a live culture of M. luteus
Method: as §7, §1, §2, §3, §4, §5, §6

[2] = Supplemental table S9, MIC values of Table 2 expressed in µM
[3] = Table 2, broth microdilution in TSB, 16 h, read visually, highest tested 64 µg/ml, 2% DMSO

| SMILES | MIC M. luteus (NCTC2665) (M. luteus (NCTC2665); [2]) | MIC M. luteus (NCTC2665) (M. luteus (NCTC2665); [3]) | Result with antagonist C15-P [1] | Result with antagonist C55-PP (C55-PP) | Effect of adding C55-PP on antibiotic activity (C55-PP) | Result with antagonist Lipid II (lipid II) | Effect of pre-incubation with lipid II on antibacterial activity (lipid II) |
| --- | --- | --- | --- | --- | --- | --- | --- |
| CCCCCCCCCCNC(=O)CNC(=O)[C@H]1CSCc2cc3cc(c2)CSC[C@@H](NC(=O)[C@@H](CC(C)C)NC(=O)[C@@H](CC(C)C)NC(=O)[C@@H](CCCNC(=N)N)NC(=O)[C@@H](CCC(N)=O)NC(=O)[C@@H](CC(C)C)NC(=O)[C@@H](CC(C)C)NC(=O)[C@H](NC(=O)[C@@H](C)N)CSC3)C(=O)N2CCC[C@@H]2C(=O)N[C@H](Cc2ccc(O)cc2)C(=O)N[C@H](CO)C(=O)N[C@H]([C@H](C)O)C(=O)N[C@H](Cc2c[nH]cn2)C(=O)N[C@H](C)C(=O)N1 [P8-D-(S6R, R15A)-C10] (H-[dA][dC][dL][dL][dQ][dR][dL][dL][dC][dP][dY][dS][dT][dH][dA][dC]G-NHDecyl; linker 2-9-16 via TBMB; N-terminus assumed) | 3.8 µM (≈ 7.99 µg/mL) | 4 μg mL^–1 | - | + | complete loss of antibiotic activity | + | antagonization of antibacterial activity |
| CCCCCCCCCCNC(=O)CNC(=O)[C@@H]1CSCc2cc3cc(c2)CSC[C@H](NC(=O)[C@H](CC(C)C)NC(=O)[C@H](CC(C)C)NC(=O)[C@H](CCCNC(=N)N)NC(=O)[C@H](CCC(N)=O)NC(=O)[C@H](CC(C)C)NC(=O)[C@H](CC(C)C)NC(=O)[C@@H](NC(=O)[C@H](C)N)CSC3)C(=O)N2CCC[C@H]2C(=O)N[C@@H](Cc2ccc(O)cc2)C(=O)N[C@@H](CO)C(=O)N[C@@H]([C@@H](C)O)C(=O)N[C@@H](Cc2c[nH]cn2)C(=O)N[C@@H](C)C(=O)N1 [P8-L-(S6R, R15A)-C10] (H-ACLLQRLLCPYSTHACG-NHDecyl; linker 2-9-16 via TBMB; N-terminus assumed) | 3.8 µM (≈ 7.99 µg/mL) | 4 μg mL^–1 | - | + | complete loss of antibiotic activity | + | effectively antagonized |
